From patent US20250368678A1, “19-NOR-C3,3-DISUBSTITUTED C21-AZACYCLO-S[…] AND METHOD FOR USING SAME” (SHANDONG LUYE PHARMACEUTICAL CO., LTD., priority 2022, published 2025)

Experiments:
[1] = In vitro liver microsomal stability assay, rat; type: in vitro ADME; conditions: for CLint scaled at 1 µM / half-life at 1 µM / microsomal CLint at 1 µM / T1/2: Rat liver microsomes; for Remaining amount % at 60 min: Rat liver microsomes 0.5 mg/mL, NADPH; for microsomal CLint at 1 µM: read-out: CLint(mic)
Protocol: (§1) 1) Preparation of working solutions of test samples: The test samples were diluted with acetonitrile to 100 M.
(§2) 2) Preparation of a working solution of liver microsomes: liver microsomes were diluted with 100 mM phosphate-buffered saline to 0.56 mg/mL.
(§3) 3) Preparation of a working solution of reduced nicotinamide adenine dinucleotide (NADPH): A proper amount of NADPH was weighed out and diluted with phosphate-buffered saline to 20 mM, and an equal volume of a 60 mM MgCl2 solution was added.
(§4) 4) Preparation of a stop solution: Tolbutamide was diluted with acetonitrile to 20 ng/mL, serving as a stop solution containing an internal standard.
(§5) 1) Incubation anti-adsorption EP tubes were prepared and labeled with species, test/control sample, time points (0, 5, 10, 20, 30, 60 min, Blank60, and NCF60), etc.
(§6) 2) 2 L of test or control sample working solution, diluted with acetonitrile to 100 M, and 178 L of liver microsome working solution were added to each tube. For the Blank60 tube, 2 L of acetonitrile was added instead of a test sample. The tubes were pre-incubated in a 37° C. water bath for about 10 min, with each sample tested in triplicate.
(§7) 3) After the pre-incubation was complete, 20 L of NADPH working solution was added to each tube except for the 0 min and NCF60 tubes to start reactions, and 20 L of phosphate-buffered saline (containing 30 mM MgCl2) was added to the NCF60 tube. In the incubation system, the final concentrations of the test and control samples were 1 M, the final concentration of liver microsomes was 0.5 mg/mL, the final concentration of NADPH was 1 mM, and the final concentration of MgCl2 was 3 mM.
(§8) 4) For the 0 min sample, 600 L of stop solution was added before adding the NADPH working solution. After each sample was incubated for its respective time, 600 L of stop solution was added to stop the reaction.
(§9) 5) After the reaction was stopped, each sample was vortexed for 30 s and then centrifuged at 13,500 rpm for 10 min. 100 L of the supernatant was transferred to an EP tube, and 100 L Milli-Q water was added. The mixture was well mixed by vortexing and analyzed by LC-MS/MS.
(§10) 6) Testosterone and dextromethorphan were used as positive control samples under the same conditions to assess the stability and reliability of the system.
(§11) Parameters of the test samples, including their half-lives, intrinsic clearance rates in liver microsomes, and hepatic intrinsic clearance rates, were calculated based on the percentage of test sample remaining.

[2] = target: T1, α1β2γ2 GABA receptors (α1β2γ2-CHO-TRex stable cell strain) (Homo sapiens, UniProt P14867+P47870); assay: Whole-cell patch clamp, intrasynaptic functional activity (positive allosteric regulation of GABA-induced current); type: cell-based; conditions: patch clamp -60 mV, GABA at EC10-20, α1β2γ2-CHO-TRex cells
T1 construct: expressed in transfected cells
Protocol: (§12) The α4β3δ-HEK-FlpIn-TRex stable cell strain was cultured in DMEM+10% FBS complete culture medium, with the selective antibiotics being 10 μg/mL Blasticidin, 100 µg/mL Zeocin, 100 µg/mL Hygromycin, and 0.2 μg/mL Puromycin. The α1β2γ2-CHO-TRex stable cell strain was cultured in DMEM/F12+10% FBS complete culture medium, with the selective antibiotics being 10 μg/mL Blasticidin, 100 μg/mL Zeocin, 300 μg/mL Hygromycin, and […] Puromycin.
(§13) The day before the patch clamp experiment, cells were seeded onto 12 mm polylysine-coated coverslips and then cultured in 35 mm culture dishes, and tetracycline ([…]) was added to induce the expression of GABA receptors. The extracellular fluid had the following composition (in mM): 140 NaCl, 3 KCl, 1.5 MgCl2, 2 CaCl2, 10 HEPES, and 10 Glucose. After thorough mixing, NaOH was added to adjust the pH to 7.4, and sucrose was added to adjust the osmotic pressure to 300-320 mOsm. The fluid was stored at 4° C. The electrode internal solution had the following composition (in mM): 145 KCl, 1 MgCl2, 5 EGTA, 10 HEPES, and 5 MgATP. After thorough mixing, KOH was added to adjust the pH to 7.3, and sucrose was added to adjust the osmotic pressure to 290-300 mOsm. The solution was filtered through a […] before use.
(§14) Whole-cell patch clamp recording was mainly employed in this experiment. The membrane potential was clamped at −60 mV, and receptors were activated using GABA at an EC10-20 concentration ([…]). The test compounds were dissolved in 0.1% DMSO, and perfusion was performed for 30 s prior to GABA stimulation. Finally, the positive allosteric regulating effects of the test compounds on α1β2γ2 or α4β3δ were determined.
(§15) The experimental result for each concentration was expressed as a fold increase in the GABA-induced current caused by the compound. […] At least 5 concentrations are tested to obtain a complete EC50 curve and EC50 values. All experiments were repeated on no less than 3 cells, and data processing was completed using GraphPad prism software. The dose-response curves were fitted using the Hill equation, and the half-maximal activating concentration EC50 and Emax were finally obtained.

[3] = target: T2, α4β3δ GABA receptors (α4β3δ-HEK-FlpIn-TRex stable cell strain) (Homo sapiens, UniProt P28472+P48169); assay: Whole-cell patch clamp, extrasynaptic functional activity (positive allosteric regulation of GABA-induced current); type: cell-based; conditions: patch clamp -60 mV, GABA at EC10-20, α4β3δ-HEK-FlpIn-TRex cells
T2 construct: expressed in transfected cells
Protocol: as §12, §13, §14, §15

[4] = In vitro liver microsomal stability assay, human; type: in vitro ADME; conditions: for CLint scaled at 1 µM / half-life at 1 µM / microsomal CLint at 1 µM / T1/2: Human liver microsomes; for Remaining amount % at 60 min: Human liver microsomes 0.5 mg/mL, NADPH; for microsomal CLint at 1 µM: read-out: CLint(mic)
Protocol: as §1, §2, §3, §4, §5, §6, §7, §8, §9, §10, §11

T1 sequence (P14867 28-456): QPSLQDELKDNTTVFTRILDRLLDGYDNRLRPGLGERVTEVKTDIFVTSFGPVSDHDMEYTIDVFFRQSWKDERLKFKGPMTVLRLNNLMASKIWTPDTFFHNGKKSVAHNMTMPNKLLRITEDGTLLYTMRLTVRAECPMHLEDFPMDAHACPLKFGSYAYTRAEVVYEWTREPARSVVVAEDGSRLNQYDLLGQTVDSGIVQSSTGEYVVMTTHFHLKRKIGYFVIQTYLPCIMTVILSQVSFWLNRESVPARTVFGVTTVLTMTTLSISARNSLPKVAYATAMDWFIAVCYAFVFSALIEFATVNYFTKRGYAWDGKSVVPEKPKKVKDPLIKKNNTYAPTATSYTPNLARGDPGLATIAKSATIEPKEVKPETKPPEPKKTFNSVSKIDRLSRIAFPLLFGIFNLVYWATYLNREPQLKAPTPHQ
T1 sequence (P47870 25-512 limits assumed): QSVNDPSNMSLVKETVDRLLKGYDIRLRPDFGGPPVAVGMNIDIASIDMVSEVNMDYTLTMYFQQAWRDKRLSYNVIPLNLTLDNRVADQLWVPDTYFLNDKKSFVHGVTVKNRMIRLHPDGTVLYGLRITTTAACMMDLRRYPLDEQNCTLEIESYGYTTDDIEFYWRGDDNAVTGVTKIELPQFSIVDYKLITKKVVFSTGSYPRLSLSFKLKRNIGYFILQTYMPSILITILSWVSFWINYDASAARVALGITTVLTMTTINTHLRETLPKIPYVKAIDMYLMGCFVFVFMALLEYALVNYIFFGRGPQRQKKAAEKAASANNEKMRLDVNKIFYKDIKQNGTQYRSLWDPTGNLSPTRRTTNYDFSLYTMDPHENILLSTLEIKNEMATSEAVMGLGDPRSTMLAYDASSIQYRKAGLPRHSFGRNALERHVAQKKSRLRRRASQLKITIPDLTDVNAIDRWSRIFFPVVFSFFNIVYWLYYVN
T1 sequence (P18507 40-475 partner): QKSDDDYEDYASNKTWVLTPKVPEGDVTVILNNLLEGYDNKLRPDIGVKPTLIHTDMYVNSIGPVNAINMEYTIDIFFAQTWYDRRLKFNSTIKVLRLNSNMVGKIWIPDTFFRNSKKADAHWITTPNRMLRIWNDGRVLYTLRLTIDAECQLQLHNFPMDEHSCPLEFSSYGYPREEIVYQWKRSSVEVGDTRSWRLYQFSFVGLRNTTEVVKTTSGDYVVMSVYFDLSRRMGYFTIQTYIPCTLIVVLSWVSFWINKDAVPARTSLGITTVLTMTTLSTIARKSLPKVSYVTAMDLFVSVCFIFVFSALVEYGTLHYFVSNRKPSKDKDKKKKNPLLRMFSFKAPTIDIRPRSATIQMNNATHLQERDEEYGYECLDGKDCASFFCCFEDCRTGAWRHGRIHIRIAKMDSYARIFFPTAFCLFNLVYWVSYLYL
T2 sequence (P48169 36-554): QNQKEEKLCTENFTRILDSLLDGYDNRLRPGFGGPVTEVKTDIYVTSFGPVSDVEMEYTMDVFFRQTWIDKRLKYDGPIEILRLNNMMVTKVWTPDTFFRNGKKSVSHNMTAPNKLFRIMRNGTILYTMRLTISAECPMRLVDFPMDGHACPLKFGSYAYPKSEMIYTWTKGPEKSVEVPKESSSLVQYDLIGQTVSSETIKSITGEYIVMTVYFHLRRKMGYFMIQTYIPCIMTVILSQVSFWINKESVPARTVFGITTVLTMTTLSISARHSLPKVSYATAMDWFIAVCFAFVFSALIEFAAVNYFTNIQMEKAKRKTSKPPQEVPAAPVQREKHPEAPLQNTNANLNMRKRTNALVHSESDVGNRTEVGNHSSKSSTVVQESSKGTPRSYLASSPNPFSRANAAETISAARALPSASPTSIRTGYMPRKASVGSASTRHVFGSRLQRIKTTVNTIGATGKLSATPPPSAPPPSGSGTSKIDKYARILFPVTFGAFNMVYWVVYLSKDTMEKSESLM
T2 sequence (P28472 26-473): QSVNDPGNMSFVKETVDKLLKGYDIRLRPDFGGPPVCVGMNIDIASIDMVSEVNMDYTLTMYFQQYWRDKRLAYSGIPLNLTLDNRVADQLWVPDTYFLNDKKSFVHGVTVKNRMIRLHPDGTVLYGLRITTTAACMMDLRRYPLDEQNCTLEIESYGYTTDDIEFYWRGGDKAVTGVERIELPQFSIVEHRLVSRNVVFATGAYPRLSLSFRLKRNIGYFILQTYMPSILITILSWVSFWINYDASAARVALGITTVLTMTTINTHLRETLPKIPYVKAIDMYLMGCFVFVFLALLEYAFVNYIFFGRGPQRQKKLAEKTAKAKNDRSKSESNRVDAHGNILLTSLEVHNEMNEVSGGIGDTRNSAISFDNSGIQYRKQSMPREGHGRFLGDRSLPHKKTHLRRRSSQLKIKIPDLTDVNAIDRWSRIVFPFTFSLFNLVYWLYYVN
T2 sequence (O14764 25-452 partner): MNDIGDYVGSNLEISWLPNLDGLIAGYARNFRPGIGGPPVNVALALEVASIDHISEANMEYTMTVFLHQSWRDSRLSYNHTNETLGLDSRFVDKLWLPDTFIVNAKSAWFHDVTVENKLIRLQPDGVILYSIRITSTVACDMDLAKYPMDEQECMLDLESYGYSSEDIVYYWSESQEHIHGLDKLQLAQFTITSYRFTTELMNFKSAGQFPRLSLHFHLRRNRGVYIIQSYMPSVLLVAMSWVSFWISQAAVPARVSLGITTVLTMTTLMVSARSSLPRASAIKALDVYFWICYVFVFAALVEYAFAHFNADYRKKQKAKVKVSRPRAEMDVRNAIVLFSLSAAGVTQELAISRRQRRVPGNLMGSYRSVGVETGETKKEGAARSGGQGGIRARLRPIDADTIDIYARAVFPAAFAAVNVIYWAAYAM

Row | Compound | CLint scaled at 1 µM [1] | half-life at 1 µM [1] | Remaining amount % at 60 min [1] | microsomal CLint at 1 µM [1] | EC50 [2] | Emax [2] | EC50 [3] | Emax [3] | CLint scaled at 1 µM [4] | half-life at 1 µM [4] | Remaining amount % at 60 min [4] | microsomal CLint at 1 µM [4] | T1/2 [1] | T1/2 [4]
1 | C[C@@]1(O)CC[C@@]2(C)[C@@H](CC[C@@H]3[C@@H]2CC[C@]2(C)[C@@H](C(=O)Cn4cnn(-c5cccc(F)c5)c4=O)CC[C@@H]32)C1 [Compound 33] | 29 mL/min/kg | 85.6 min | 62.2% | 16 µL/min/mg | 598 nM | 495% | 96 nM | 936% | < 6.7 mL/min/kg | > 186 min | 85.8% | < 7.5 µL/min/mg | – | –
2 | C[C@@]1(O)CC[C@H]2[C@H](CC[C@@H]3[C@@H]2CC[C@]2(C)[C@@H](C(=O)Cn4cnn(-c5cccnc5)c4=O)CC[C@@H]32)C1 [Compound 2] | 187 mL/min/kg | – | 11.25% | 104 µL/min/mg | – | 773% | – | 391% | 52 mL/min/kg | – | 18.57% | 57 µL/min/mg | 11.3 min | 24.1 min
3 | COc1ccc(-n2ncn(CC(=O)[C@H]3CC[C@H]4[C@@H]5CC[C@@H]6C[C@](C)(O)CC[C@@H]6[C@H]5CC[C@]34C)c2=O)cn1 [Compound 17] | 161 mL/min/kg | – | 6.6% | 90 µL/min/mg | – | 389% | – | 474% | 17 mL/min/kg | – | 57.7% | 19 µL/min/mg | 15.5 min | 72.9 min
4 | C[C@@]1(O)CC[C@H]2[C@H](CC[C@@H]3[C@@H]2CC[C@]2(C)[C@@H](C(=O)Cn4cnn(-c5cccc(C(N)=O)c5)c4=O)CC[C@@H]32)C1 [Compound 19] | 141 mL/min/kg | – | 9.5% | 79 µL/min/mg | – | 764% | – | 386% | 26 mL/min/kg | – | 42.2% | 29 µL/min/mg | 17.6 min | 28.5 min
5 | COCCn1ncn(CC(=O)[C@H]2CC[C@H]3[C@@H]4CC[C@@H]5C[C@](C)(O)CC[C@@H]5[C@H]4CC[C@]23C)c1=O [Compound 31] | 234 mL/min/kg | 10.7 min | 2.1% | 130 µL/min/mg | – | 735% | – | 609% | 37 mL/min/kg | 34.1 min | 28.5% | 41 µL/min/mg | – | –
6 | C[C@@]1(O)CC[C@H]2[C@H](CC[C@@H]3[C@@H]2CC[C@]2(C)[C@@H](C(=O)Cn4cnn(-c5cc(Cl)ccn5)c4=O)CC[C@@H]32)C1 [Compound 26] | 120 mL/min/kg | – | 12.7% | 67 µL/min/mg | – | 624% | – | 589% | 18 mL/min/kg | – | 53.7% | 20 µL/min/mg | 20.8 min | 68.6 min
